Reference: patent US20020155126A1, “Pharmacological composition containing yeast cell wall fraction” (priority 2001, published 2002)

Columns and labels:
[1] = test system: NC/Nga mice (models for atopic dermatitis); assay: Test Example 4: anti-atopic dermatitis test, NC/Nga mice, picryl chloride hapten challenge; assay type: in vivo
Method: Next, test was conducted on the anti-atopic dermatitis effect of the yeast cell wall fraction. As a test specimen, NC/Nga mice (5.5 weeks old) were preliminarily raised for 2 weeks with solid foodstuff (CE-2, manufactured by Clea Japan, Inc.) and, after adaptation to the experimental environment, were used upon being separated into groups of 7 mice each. […] Hapten sensitization was conducted 1 week after the commencement of test foodstuff administration, and the initial (first) hapten challenge was conducted a week thereafter, and a hapten challenge was conducted for each elapsed week thereafter, and the final (eighth) hapten challenge was conducted […] after the commencement of test foodstuff administration. […] In the aforementioned anti-atopic dermatitis test, the clinical score and total plasma IgE level were measured with time. […] The clinical score was comprehensively evaluated in […] evaluation phases of score (0)none, (1)mild, (2)moderate, (3)severe, regarding the 5 symptoms of acomia of scalp; bleeding and erosion of scalp; bleeding and erosion of auricle portion; corpulence, edema, and purpura of auricle portion; and deformation and disappearance of auricle porition. […]

[2] = test system: NC/Nga mice (model for delayed-type hypersensitivity); assay: Test Example 5: inhibition effect of delayed-type hypersensitivity, NC/Nga mice; assay type: in vivo
Method: The same test mice and test foodstuff as in Test Example 4 were used to conduct a test on the inhibition effect of delayed-type hypersensitivity. The NC/Nga mice, as described above, are known as a model for atopic dermatitis, but can also be used as a model for delayed-type hypersensitivity. The administration of test foodstuff to the test mice was continued until the end of the test. Hapten sensitization was conducted 1 week after the commencement of the foodstuff administration, hapten challenge was conducted 1 week thereafter upon measuring the thickening of the auricle portion prior to the challenge, and measurement of the thickening of the auricle portion 24 hours later was conducted once again. Hapten sensitization was conducted by applying picryl chloride 7% by weight ethanol solution 100 μl to the abdomen, and the hapten challenge was conducted by applying picryl chloride 1% by weight olive oil solution 10 μl to both faces of each auricle portion. The anti-inflammation effect was measured by seeking the edema ratio and tumidity from the aforementioned test results. […]

[3] = after the completion of administration of the test foodstuff

Final Weight, Mean [1, 3]: 25.9 g | Ingestion, Mean ([1]; daily foodstuff ingestion amount, anti-atopic dermatitis test): 4.05 g/day | Final Weight, Mean [2, 3]: 24.2 g | Ingestion, Mean ([2]; daily foodstuff ingestion amount, delayed-type hypersensitivity test): 4.2 g/day
Structure (SMILES): OC[C@H]1O[C@H](OC[C@H]2O[C@H](O[C@]3(CO)O[C@H](CO)[C@@H](O)[C@@H]3O)[C@H](O)[C@@H](O)[C@@H]2O)[C@H](O)[C@@H](O)[C@H]1O [Raffinose]
